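GI50 = concentration required for 50% inhibition of growth. Definition used: TGI = concentration required for complete inhibition of growth.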
Experiments:
Test in all cases: NCI tumour cell line growth inhibition, 384-well format; in the data active = GI50 below about 0.43 µM; inactive = the rest
[1] = test system: 786-0 renal
[2] = test system: A498 renal
[3] = test system: A549 NSCLC
[4] = test system: ACHN renal
[5] = test system: BT-549 breast
[6] = test system: CAKI-1 renal
[7] = test system: CCRF-CEM leukemia
[8] = test system: COLO 205 colon
[9] = test system: DU-145 prostate
[10] = test system: EKVX NSCLC
[11] = test system: HCC-2998 colon
[12] = test system: HCT-15 colon
[13] = test system: HL-60(TB) leukemia
[14] = test system: HOP-62 NSCLC
[15] = test system: HOP-92 NSCLC
[16] = test system: HS 578T breast
[17] = test system: HT29 colon
[18] = test system: IGROV1 ovarian
[19] = test system: K-562 leukemia
[20] = test system: KM12 colon
[21] = test system: LOX IMVI melanoma
[22] = test system: M14 melanoma
[23] = test system: MALME-3M melanoma
[24] = test system: MCF7 breast
[25] = test system: MDA-MB-231 breast
[26] = test system: MDA-MB-435 melanoma
[27] = test system: MDA-MB-468 breast
[28] = test system: MOLT-4 leukemia
[29] = test system: NCI-H226 lung
[30] = test system: NCI-H23 lung
[31] = test system: NCI-H322M lung
[32] = test system: NCI-H460 NSCLC
[33] = test system: NCI-H522 lung
[34] = test system: NCI/ADR-RES ovarian
[35] = test system: OVCAR-3 ovarian
[36] = test system: OVCAR-4 ovarian
[37] = test system: OVCAR-5 ovarian
[38] = test system: OVCAR-8 ovarian
[39] = test system: PC-3 prostate
[40] = test system: RPMI-8226 leukemia
[41] = test system: RXF 393 renal
[42] = test system: SF-268 CNS
[43] = test system: SF-295 CNS
[44] = test system: SF-539 CNS
[45] = test system: SK-MEL-28 melanoma
[46] = test system: SK-MEL-5 melanoma
[47] = test system: SK-OV-3 ovarian
[48] = test system: SN12C renal
[49] = test system: SNB-19 CNS
[50] = test system: SNB-75 CNS
[51] = test system: SR leukemia
[52] = test system: SW-620 colon
[53] = test system: T-47D breast
[54] = test system: TK-10 renal
[55] = test system: U251 glioblastoma
[56] = test system: UACC-257 melanoma
[57] = test system: UACC-62 melanoma
[58] = test system: UO-31 renal
[59] = test system: HCT-116 colon

O=C(NOC[C@H](O)CO)c1ccc(F)c(F)c1Nc1ccc(I)cc1F
< 0.01 µM: TGI [13] | TGI [22] | TGI [23] | TGI [45] | TGI [56] | TGI [57]
74.2 µM: TGI [50]
10.9 µM: TGI [27]
> 100 µM: TGI [1] | TGI [2] | TGI [4] | TGI [5] | TGI [6] | TGI [7] | TGI [9] | TGI [10] | TGI [12] | TGI [14] | TGI [16] | TGI [17] | TGI [19] | TGI [20] | TGI [24] | TGI [26] | TGI [31] | TGI [32] | TGI [33] | TGI [35] | TGI [38] | TGI [39] | TGI [41] | TGI [42] | TGI [43] | TGI [47] | TGI [49] | TGI [51] | TGI [52] | TGI [53] | TGI [54] | TGI [55]
45.8 µM: TGI [46]
active: GI50 [3] 0.0196 µM | GI50 [6] 0.0974 µM | GI50 [8] < 0.01 µM | GI50 [10] 0.358 µM | GI50 [11] < 0.01 µM | GI50 [13] < 0.01 µM | GI50 [14] 0.0116 µM | GI50 [15] 0.0133 µM | GI50 [17] < 0.01 µM | GI50 [18] 0.0573 µM | GI50 [19] 0.205 µM | GI50 [20] < 0.01 µM | GI50 [21] < 0.01 µM | GI50 [22] < 0.01 µM | GI50 [23] < 0.01 µM | GI50 [25] 0.0331 µM | GI50 [26] < 0.01 µM | GI50 [29] < 0.01 µM | GI50 [30] < 0.01 µM | GI50 [31] 0.0373 µM | GI50 [32] 0.369 µM | GI50 [36] 0.0375 µM | GI50 [37] < 0.01 µM | GI50 [40] < 0.01 µM | GI50 [45] < 0.01 µM | GI50 [46] < 0.01 µM | GI50 [48] < 0.01 µM | GI50 [49] 0.164 µM | GI50 [52] < 0.01 µM | GI50 [56] < 0.01 µM | GI50 [57] < 0.01 µM
inactive: GI50 [1] 10.4 µM | GI50 [2] 0.436 µM | GI50 [4] 0.471 µM | GI50 [5] 9.53 µM | GI50 [7] 39.8 µM | GI50 [9] 3.46 µM | GI50 [12] 0.749 µM | GI50 [16] 2.73 µM | GI50 [24] 33.7 µM | GI50 [27] 0.865 µM | GI50 [28] 28.1 µM | GI50 [33] 15.3 µM | GI50 [34] 6.17 µM | GI50 [35] 21.8 µM | GI50 [38] 11.8 µM | GI50 [39] > 100 µM | GI50 [41] 0.645 µM | GI50 [42] 33.3 µM | GI50 [43] 22.3 µM | GI50 [44] 1.34 µM | GI50 [47] 7.02 µM | GI50 [50] 2.68 µM | GI50 [51] 26.4 µM | GI50 [53] 11.8 µM | GI50 [54] 0.689 µM | GI50 [55] 0.577 µM | GI50 [58] 0.506 µM
0.722 µM: TGI [21]
0.0395 µM: TGI [11]
65.9 µM: TGI [44]
85.1 µM: TGI [34]
24.1 µM: TGI [58]
65.7 µM: TGI [36]
18 µM: TGI [40]
25.5 µM: TGI [3]
0.934 µM: TGI [25]
0.492 µM: TGI [15]
26.1 µM: TGI [37]
18.1 µM: TGI [29]
0.0136 µM: TGI [8]
92.7 µM: TGI [28]
0.391 µM: TGI [30]
39.1 µM: TGI [18]
22.9 µM: TGI [48]

CC(C)c1c(-c2ccccc2)nc2c(C#N)c[nH]n2c1=O
29.9 µM: TGI [28]
70.9 µM: TGI [29]
36.1 µM: TGI [23]
37.2 µM: TGI [27]
25.7 µM: TGI [13]
46.3 µM: TGI [56]
96.8 µM: TGI [22] | TGI [45]
37.9 µM: TGI [40]
53.5 µM: TGI [25]
74.2 µM: TGI [36]
41.2 µM: TGI [51]
44.5 µM: TGI [30]
> 100 µM: TGI [1] | TGI [2] | TGI [3] | TGI [4] | TGI [5] | TGI [6] | TGI [9] | TGI [11] | TGI [59] | TGI [12] | TGI [16] | TGI [17] | TGI [18] | TGI [19] | TGI [20] | TGI [26] | TGI [31] | TGI [38] | TGI [39] | TGI [41] | TGI [42] | TGI [44] | TGI [47] | TGI [49] | TGI [50] | TGI [52] | TGI [54] | TGI [55] | TGI [58]
46.4 µM: TGI [10]
inactive: GI50 [1] 33.6 µM | GI50 [2] 40.2 µM | GI50 [3] 33.1 µM | GI50 [4] 38.3 µM | GI50 [5] 39.9 µM | GI50 [6] 44.8 µM | GI50 [7] 20.8 µM | GI50 [8] 24.1 µM | GI50 [9] 31.9 µM | GI50 [10] 22.4 µM | GI50 [11] 44.9 µM | GI50 [59] 34.5 µM | GI50 [12] 38.8 µM | GI50 [13] 12.2 µM | GI50 [14] 24.9 µM | GI50 [15] 30.5 µM | GI50 [16] 37.7 µM | GI50 [17] 38 µM | GI50 [18] 44 µM | GI50 [19] 37.7 µM | GI50 [20] 30.8 µM | GI50 [21] 21.1 µM | GI50 [22] 30.7 µM | GI50 [23] 17.6 µM | GI50 [24] 20.9 µM | GI50 [25] 24.2 µM | GI50 [26] 39.9 µM | GI50 [27] 19.6 µM | GI50 [28] 16.2 µM | GI50 [29] 27 µM | GI50 [30] 20.3 µM | GI50 [31] 33.6 µM | GI50 [32] 27.4 µM | GI50 [33] 19 µM | GI50 [34] 27.5 µM | GI50 [35] 18 µM | GI50 [36] 25.9 µM | GI50 [38] 37.6 µM | GI50 [39] 37.2 µM | GI50 [40] 21.1 µM | GI50 [41] 28.6 µM | GI50 [42] 36.6 µM | GI50 [43] 22.9 µM | GI50 [44] 34.2 µM | GI50 [45] 28.5 µM | GI50 [46] 19.4 µM | GI50 [47] 36.8 µM | GI50 [48] 20.3 µM | GI50 [49] 43.6 µM | GI50 [50] 35.2 µM | GI50 [51] 25.2 µM | GI50 [52] 38.8 µM | GI50 [53] 21 µM | GI50 [54] 34.1 µM | GI50 [55] 34.4 µM | GI50 [56] 22.3 µM | GI50 [57] 24.2 µM | GI50 [58] 38.9 µM
69.5 µM: TGI [34]
54.7 µM: TGI [24]
35.6 µM: TGI [46]
41.9 µM: TGI [21] | TGI [48]
65.9 µM: TGI [14]
65.3 µM: TGI [32]
37.6 µM: TGI [33]
36.3 µM: TGI [35]
42.4 µM: TGI [7]
42.9 µM: TGI [53]
62.4 µM: TGI [43]
89 µM: TGI [15]
66.7 µM: TGI [57]
47.9 µM: TGI [8]

From PubChem BioAssay (NCI)
